# Source: US6500835B2, “Preventive or therapeutic drugs for fibrosis containing chymase inhibitors as the active ingredient” (Suntory Limited, priority 2000, dated 2002)
# Where a name gives a salt, the structure may show the parent alone.
# Experiments:
# Human heart chymase = target: T1, Human heart chymase (Homo sapiens, UniProt P23946); test: Measurement of chymase inhibitory activity (Suc-Ala-Ala-Pro-Phe-MCA substrate); type: biochemical; settings: 30° C., 10 min preincubation
# T1 construct: Human heart chymase was purified according to the method of Urata et al; from tissue; host or cells: human heart
# T1 sequence (P23946 22-247): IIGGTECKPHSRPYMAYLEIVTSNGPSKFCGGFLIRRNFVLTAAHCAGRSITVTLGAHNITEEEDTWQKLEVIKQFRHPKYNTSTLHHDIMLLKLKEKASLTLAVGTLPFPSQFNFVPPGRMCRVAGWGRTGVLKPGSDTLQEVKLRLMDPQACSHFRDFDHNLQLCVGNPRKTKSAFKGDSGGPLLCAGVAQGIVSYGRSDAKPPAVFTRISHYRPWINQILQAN
# Experimental: Human heart chymase was purified according to the method of Urata et al. (J. Biol. Chem., 1990, 265, 22348). The inhibitory activity off the compound of the present invention was determined as follows. Purified enzyme was diluted with 0.1M tris HCl buffer (pH=7.5), 1M sodium chloride, and 0.01% Triton X-100 to obtain an enzyme solution having appropriate concentrations. Suc-Ala-Ala-Pro-Phe-MCA (Peptide Institute Inc.) was dissolved in 10 mM dimethyl sulfoxide (hereinafter referred to as DMSO) and diluted 20-fold with 0.1 M Tris-HCl buffer (pH 7.5) containing 1 M sodium chloride and 0.01% Triton X-100 to an appropriate concentration to prepare substrate solution.
# 5 μl of the test sample in DMSO was added to 75 μl of the enzyme solution and preincubated at 30° C. for 10 minutes. Then, 20 μl of the subs rate solution was added to the test sample-enzyme mixture, and incubated at 30° C. Ten minutes later, 50 μl of 30% acetic acid was added to stop the enzymatic reaction, and the amount of AMC formed was determined using a fluorophotometer. At the same time, 5 μl of DMSO in stead of the test sample was added and reacted simultaneously as a control. The inhibitory activity to human chymase was calculated based on the value of the control, and then the inhibition percentage and the 50% inhibition concentration (IC50) were determined.
# chymase = test: Effects of chymase inhibitor on chymase activity in tissues of mice after intraperitoneal administration; type: in vivo; settings: ICR mice, 12 and 24 hours after administration
# Experimental: (§1) A chymase inhibitor (Compound 18) was administered intraperitoneally in ICR mice (8 weeks old, n=3). After 12 hours and 24 hours, the chymase was extracted from the small intestines, tongues, back skins, front legs, and rear legs of the mice and the enzymatic activity thereof was determined. The chymase was extracted using a 10 mM phosphate buffer including 2M KCl and 0.1% polyethylene octylphenyl ether (Triton X-100) from the tissues. Chymase activity was determined, by measuring the rate of hydrolysis of synthesized substrate Suc-Phe-Pro-Phe-p-nitroanilide. Saline was administered in 24 hours in control groups.
# Tsk mice = test: Tsk mice, model for scleroderma: thickness of subcutaneous fibrous layer; type: in vivo; settings: 50 mg/kg/day i.p. once a day for 2 weeks, 13-week old Tsk mice
# Experimental: (§2) Collagen content, thickness of subcutaneous fibrous layer, mast cell number, chymase activity and chymase mRNA were measured in the skin of Tsk mice (Rheum. Dis. Clin. North Am. 16, 153, 1990), and compared with the control mice (pallid mice) at the ages of 5, 10, and 20 weeks (n=6). The collagen content was determined by measuring hydroxyproline, the marker for collagen, using HPLC, whereas fibrous layer thickness was determined by histological analysis with Azan staining followed by measuring the area of the fibrous layer using an image analysis system. The density of mast cells was calculated by counting the number of cells with stained granules by toluidine blue staining. Chymase was extracted from the skin according to the method described previously (Arch. Dermatol. Res. 290, 553, 1998), and the activity determined as described in Example 2. The mRNA for the skin chymase (MMCP-4) was measured only at 10 weeks of age by competitive RT-PCR method (Biotechniques 21, 268, 1996).
# 13-week old Tsk mice (n=5) were intra peritoneally administered a chymase inhibitor (Compound 18) in a dosage of 50 mg/kg/day once a day every day for 2 weeks. Five hours after the final administration, the degree of hypertrophy of the subcutaneous fibrous layer and the skin-chymase activity were measured and compared with the values of the group administered saline. […]
# skin chymase = target: T2, skin chymase (Mus musculus, UniProt P21812); test: Tsk mice, model for scleroderma: skin chymase activity; type: in vivo; settings: 50 mg/kg/day i.p. once a day for 2 weeks, 13-week old Tsk mice, 5 hours after final administration
# T2 construct: Chymase was extracted from the skin according to the method described previously; from tissue; host or cells: skin of Tsk mice
# T2 sequence (P21812 21-246): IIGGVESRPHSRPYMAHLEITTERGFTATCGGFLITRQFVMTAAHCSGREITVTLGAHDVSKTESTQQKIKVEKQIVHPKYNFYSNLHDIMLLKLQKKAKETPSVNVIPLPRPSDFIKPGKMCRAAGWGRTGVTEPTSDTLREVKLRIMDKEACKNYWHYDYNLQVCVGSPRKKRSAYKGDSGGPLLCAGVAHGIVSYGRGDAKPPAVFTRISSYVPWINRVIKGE
# Experimental: as §1
# as §2, with “Chymase was extracted from the skin according to the method described previously (Arch. Dermatol. Res. 290, 553, 1998), and the activity determined as described in Example 2. The mRNA for the skin chymase (MMCP-4) was measured only at 10 weeks of age by competitive RT-PCR method (Biotechniques 21, 268, 1996).” left out
# [1] = tested on: bleomycin-induced pulmonary fibrosis in mice; test: Bleomycin-induced pulmonary fibrosis model: effect of chymase inhibitor on lung hydroxyproline; type: in vivo, ICR mice; settings: five days a week over 2 weeks, bleomycin 0.08 mg
# Experimental: (§3) Pulmonary fibrosis was induced by intratracheal administration of bleomycin (Nippon Kayaku) to 10 week old male ICR mice (Charles River Japan) under anesthesia (n=10). That is, bleomycin (0.04 mg or 0.08 mg) was suspended in 50 μl of saline and administered into the airways using a 100 μl syringe (made by Hamilton Co.) Two weeks after the administration of bleomycin, the lungs were excised and the amount of hydroxyproline, an indicator of tissue collagen, was assayed according to the method as described previously (Anal. Biochem. 19, 249, 1967). Further, the amount of hydroxyproline was expressed as an amount per lung. Further, mice similarly administered saline instead of bleomycin were used as a control (n=10).
# Pulmonary fibrosis was induced in accordance with the method described in Example 5 (n=10) and the amount of hydroxyproline in pulmonary tissue was assayed in the same way as in Example 5 in order to investigate the effect of a chymase inhibitor (Compound 34) on pulmonary fibrosis. Further, the chymase inhibitor was suspended in saline containing 0.5% hydroxypropyl cellulose (HPC/saline) and administered intraperitoneally at a dose of 10 mg/kg or 50 mg/kg once a day for five days a week over 2 weeks, starting immediately after the bleomycin administration. […]
# ICR mice = test: Change in hydroxyproline content in lung after intratracheal bleomycin; type: in vivo; settings: 2 weeks after administration
# Experimental: as §3
# pulmonary chymase = test: Change in pulmonary chymase activity after intratracheal bleomycin; type: in vivo, mice; settings: bleomycin 0.08 mg intratracheal, 2 weeks after administration
compound,measurement,setting,value
"O=C(O)C1Oc2ccc(S(=O)(=O)n3c(=O)[nH]c4cc(Cl)ccc4c3=O)cc2NC1=O (racemic) [Compound 29, (±)-6-[(7-chloro-2,4(1H,3H)-quinazolinedion-3-yl)sulfonyl]-3-oxo-1,4-benzoxazine-2-carboxylic acid]",IC50,Human heart chymase,1700 nM
"O=c1[nH]c2cc(Cl)ccc2c(=O)n1S(=O)(=O)c1cccc(O)c1 [Compound 1, 7-chloro-3-(3-hydroxybenzenesulfonyl)-2,4(1H,3H)-quinazolinedione]",IC50,Human heart chymase,360 nM
"Nc1ccccc1S(=O)(=O)n1c(=O)[nH]c2cc(Cl)ccc2c1=O [Compound 2, 3-(2-aminobenzenesulfonyl)-7-chloro-2.4(1H,3H)-quinazolinedione]",IC50,Human heart chymase,140 nM
"Nc1cc(S(=O)(=O)n2c(=O)[nH]c3cc(Cl)ccc3c2=O)ccc1Cl [Compound 8, 3-(3-amino-4-chlorobenzenesulfonyl)-7-chloro-2,4(1H,3H)-quinazolinedione]",IC50,Human heart chymase,35 nM
"Cc1ccc(S(=O)(=O)n2c(=O)[nH]c3cc(Cl)ccc3c2=O)cc1N [Compound 10, 3-(3-amino-4-methylbenzenesulfonyl)-7-chloro-2,4(1H,3H)-quinazolinedione]",IC50,Human heart chymase,170 nM
"Nc1cccc(S(=O)(=O)n2c(=O)[nH]c3cc(Cl)ccc3c2=O)c1 [Compound 12, 3-(3-aminobenzenesulfonyl)-7-chloro-2,4(1H,3H)-quinazolinedione]",IC50,Human heart chymase,440 nM
"CC(C(=O)O)C(=O)Nc1cccc(S(=O)(=O)n2c(=O)[nH]c3cc(Cl)ccc3c2=O)c1 (stereo not shown) [Compound 13, 2-{3-[(7-chloro-2,4(1H,3H)-quinazolinedion-3-yl)sulfonyl]phenylaminocarbonyl}propionic acid]",IC50,Human heart chymase,300 nM
"O=C(O)c1ccc(S(=O)(=O)n2c(=O)[nH]c3cc(Cl)ccc3c2=O)cc1O [Compound 16, 4-[(7-chloro-2,4(1H,3H)-quinazolinedion-3-yl)sulfonyl]salicylic acid monosodium salt]",IC50,Human heart chymase,840 nM
"Nc1cc(S(=O)(=O)n2c(=O)[nH]c3cc(Cl)ccc3c2=O)ccc1C(=O)O [Compound 17, 4-[(7-chloro-2,4(1H,3H)-quinazolinedion-3-yl)sulfonyl]anthranilic acid]",IC50,Human heart chymase,140 nM
"Nc1cc(S(=O)(=O)n2c(=O)[nH]c3cc(Cl)ccc3c2=O)ccc1C(=O)[O-].[Na+] [Compound 18, 4-[(7-chloro-2,4(1H,3H)-quinazolinedion-3-yl)sulfonyl]anthranilic acid monosodium salt]",IC50,Human heart chymase,140 nM
same,inhibition of chymase activity in the intestines compared with the group administered saline,chymase; small intestines,approximately 80%
same,"inhibition of chymase activity in the tongue, back skin, and legs","chymase; tongue, back skin, legs",about 50%
same,"thickness of the subcutaneous fibrous layer, % of that for the group administered saline",Tsk mice,about 60%
same,"skin chymase activity, % of that of the group administered saline",skin chymase,57%
"O=C(O)c1cc(S(=O)(=O)n2c(=O)[nH]c3cc(Cl)ccc3c2=O)ccc1O [Compound 21, 5-[(7-chloro-2,4(1H,3H)-quinazolinedion-3-yl)sulfonyl]salicylic acid]",IC50,Human heart chymase,340 nM
COc1ccc(S(=O)(=O)n2c(=O)[nH]c3cc(Cl)ccc3c2=O)cc1NC(C)=O [Compound 22],IC50,Human heart chymase,300 nM
"COc1ccc(S(=O)(=O)n2c(=O)[nH]c3cc(Cl)ccc3c2=O)cc1NS(C)(=O)=O [Compound 24, 7-chloro-3-(4-methoxy-3-methylsulfonylaminobenzenesulfonyl)-2,4(1H,3H)-quinazolinedione]",IC50,Human heart chymase,320 nM
"COc1ccc2c(=O)n(S(=O)(=O)c3ccc(C(=O)O)c(N)c3)c(=O)[nH]c2c1 [Compound 27, 4-[(7-methoxy-2,4(1H,3H)-quinazolinedion-3-yl)sulfonyl]anthranilic acid]",IC50,Human heart chymase,4000 nM
"Nc1cc(S(=O)(=O)n2c(=O)[nH]c3ccc(Cl)cc3c2=O)ccc1C(=O)O [Compound 32, 4-[(6-chloro-2,4(1H,3H)-quinazolinedion-3-yl)sulfonyl]anthranilic acid]",IC50,Human heart chymase,1500 nM
"CS(=O)(=O)O.Nc1cccc(S(=O)(=O)n2c(=O)[nH]c3cc(Cl)ccc3c2=O)c1 [Compound 34, 3-(3-aminobenzenesulfonyl)-7-chloro-2,4-(1H,3H)quinazolinedion methanesulfonic acid salt]",IC50,Human heart chymase,360 nM
same,effect on the increase of the amount of hydroxyproline in the lung,[1]; 10 mg/kg i.p. once a day,little effect
same,rate of suppression of the increase of the amount of hydroxyproline in the lung,[1]; 50 mg/kg i.p. once a day,about 46%
bleomycin,hydroxyproline content in the lung as compared with the saline group,ICR mice; bleomycin 0.04 mg/mouse intratracheal,1.15 fold
same,hydroxyproline content in the lung as compared with the saline group,ICR mice; bleomycin 0.08 mg/mouse intratracheal,1.25 fold
same,pulmonary chymase activity relative to the group administered saline,pulmonary chymase,about 4.5 times
